In patent publication US8173694B2, “Therapeutic agent” (Pentraxin Therapeutics Limited, priority 2001, dated 2012):

How the values were obtained:
[1] = biological target: serum amyloid P component (SAP) (Homo sapiens, UniProt P02743); test: Inhibition of SAP binding to amyloid fibrils in vitro
From the text: A method for screening and testing inhibitors of serum amyloid P component (SAP) binding to amyloid fibrils in vitro was devised and used in collaboration with F Hoffmann-La Roche Ltd to identify a suitable lead molecule for drug development. A library of candidate compounds was screened accordingly. The subsequent collaborative medicinal chemistry programme led to synthesis of a family of dicarboxylic acid, pyrrolidone ring containing molecules, of which the most studied is (R)-1-[6-(R)-2-Carboxy-pyrrolidin-1-yl]-6-oxo-hexanoyl]pyrrolidine-2-carboxylic acid. This molecule and related compounds (EP-A-0915088) are modestly potent inhibitors of SAP binding to amyloid fibrils in vitro, with IC50 values around 0.5-1.0 μM.
Further studies determined that each of the following bis-D-Proline compounds were tested for their ability to deplete SAP in vivo as described above. Each of the compounds identified below successfully depleted SAP. In addition, certain of the compounds were further tested for in vitro inhibition of binding of SAP to amyloid fibrils in accordance with the protocol provided in EP 0915088 at page 10, as referenced above. The results are shown in the second column below, where applicable.

circulating SAP = biological target: T1, circulating SAP (Mus musculus, UniProt P12246); test: Circulating SAP in normal wild type mice; format: in vivo; conditions: none of the routes caused depletion
T1 construct: all the endogenous mouse SAP in the deposits; from tissue; host or cells: mice in vivo: amyloidotic organs, or plasma of normal wild type mice
T1 sequence (P12246 21-224): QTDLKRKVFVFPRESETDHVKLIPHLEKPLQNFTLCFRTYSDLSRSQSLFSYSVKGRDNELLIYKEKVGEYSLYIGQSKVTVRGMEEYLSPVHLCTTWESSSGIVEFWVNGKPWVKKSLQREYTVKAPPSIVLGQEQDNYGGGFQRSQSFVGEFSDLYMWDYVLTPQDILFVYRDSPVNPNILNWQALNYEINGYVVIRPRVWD
Description: When (R)-1-[6-(R)-2-Carboxy-pyrrolidin-1-yl]-6-oxo-hexanoyl]pyrrolidine-2-carboxylic acid was administered by continuous infusion for 5 days via an indwelling osmotic pump, it dissociated both radiolabelled human SAP tracer, with which the amyloid deposits had previously been loaded, and all the endogenous mouse SAP in the deposits (FIG. 3). […] The SAP-(R)-1-[6-(R)-2-Carboxy-pyrrolidin-1-yl]-6-oxo-hexanoyl]pyrrolidine-2-carboxylic acid complex is evidently recognised as abnormal in vivo and swiftly removed from the circulation, but is apparently formed and/or cleared less efficiently in vivo with mouse SAP compared to human SAP.

radiolabelled mouse SAP = biological target: T2, radiolabelled mouse SAP (Mus musculus, UniProt P12246); test: Plasma clearance of radiolabelled mouse SAP tracer in mice; format: in vivo
T2 construct: intravenous injection of ^125I-labelled pure human or mouse SAP at time zero
T2 sequence (P12246 21-224): T1 sequence (P12246 21-224)
Description: Clearance from the amyloid deposits, catabolism and excretion of the human SAP tracer were monitored globally by whole body counting of the mice (left), and the total amount of mouse SAP in the amyloidotic organs was determined after killing the animals on day 5 (right). […] Immediately after the 15 minute bleed, two groups, one that had received human SAP and the other mouse SAP, received a single intraperitoneal injection of 5 mg of (R)-1-[6-(R)-2-Carboxy-pyrrolidin-1-yl]-6-oxo-hexanoyl]pyrrolidine-2-carboxylic acid (desapin). Tracer remaining in the circulation is expressed as the mean (SD) percentage of the amount at the 15 minute time point for each group. […] In one of each of the pairs of groups receiving mouse or human SAP respectively, the tracer had been mixed with (R)-1-[6-(R)-2-Carboxy-pyrrolidin-1-yl]-6-oxo-hexanoyl]pyrrolidine-2-carboxylic acid (desapin) and incubated in vitro before injection into the animals. Tracer remaining in the circulation is expressed as mean (SD) total radioactivity per gram of blood in each group. Bottom panel: effect of administration of (R)-1-[6-(R)-2-Carboxy-pyrrolidin-1-yl]-6-oxo-hexanoyl]pyrrolidine-2-carboxylic acid (desapin) in the drinking water at the concentrations shown, on circulating human SAP values in human SAP transgenic mice. Mice of approximately 20 g body weight consume about 3 ml water per day. […]

isolated pure human SAP = isolated pure human SAP (Homo sapiens, UniProt P02743); test: Size exclusion chromatography of isolated pure SAP mixed with drug; format: binding; conditions: for Elution volume / Molecular assembly: SAP
isolated pure human SAP, sequence (P02743 20-223): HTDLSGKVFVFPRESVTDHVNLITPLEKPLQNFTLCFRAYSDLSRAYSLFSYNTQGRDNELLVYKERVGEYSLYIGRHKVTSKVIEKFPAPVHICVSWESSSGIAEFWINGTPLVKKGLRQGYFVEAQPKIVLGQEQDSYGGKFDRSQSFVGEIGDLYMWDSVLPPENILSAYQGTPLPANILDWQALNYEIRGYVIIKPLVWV
From the text: SAP is a pentamer with 5 identical non-covalently associated protomers each bearing a single calcium dependent ligand binding site on one planar face, the binding (B) face, of the molecule (9). In the absence of calcium, human SAP forms stable decameric dimers, probably via A-face to A-face interactions (11). In the presence of calcium, isolated human SAP rapidly aggregates and precipitates, as a result of molecular lattice formation due to binding of the exposed carboxylate of the Glu167 residue on one SAP molecule by the calcium dependent ligand binding site of another SAP molecule (12,13). This autoaggregation of SAP is inhibited by other ligands to which SAP binds, and all the present inhibitors of SAP binding to amyloid fibrils were active in this respect. However we show here that the greater potency of (R)-1-[6-(R)-2-Carboxy-pyrrolidin-1-yl]-6-oxo-hexanoyl]pyrrolidine-2-carboxylic acid and related compounds, as inhibitors of SAP binding to amyloid fibrils in vitro, results from their capacity to cross link pairs of SAP molecules. The palindromic structure of (R)-1-[6-(R)-2-Carboxy-pyrrolidin-1-yl]-6-oxo-hexanoyl]pyrrolidine-2-carboxylic acid enables it to not only block the ligand binding sites on individual SAP protomers, but could also cross link pairs of pentameric SAP molecules to form B-B face to face decameric dimers.
C-reactive protein (CRP) is a pentraxin closely related to SAP. Samples of isolated pure human SAP or CRP were mixed with (R)-1-[6-(R)-2-Carboxy-pyrrolidin-1-yl]-6-oxo-hexanoyl]pyrrolidine-2-carboxylic acid at the molar ratios shown, with respect to pentraxin protomer, in physiological ionic strength Tris buffered saline pH 8.0, and analysed by size exclusion chromatography precisely as described previously (14). The mixtures and the column eluants contained either no calcium ions or 2 mM calcium, and the concentrations of drug appropriate to maintain the molar ratios indicated above. In the absence of a specific ligand to which it can bind, purified human SAP is insoluble in the presence of calcium and elutes as high molecular weight aggregates in the void volume of the column (14). However in the absence of calcium and ligand, isolated SAP alone forms stable decamers, providing an excellent marker for the elution volume of this molecular assembly (14). Human CRP is a stable pentamer either in the presence or absence of calcium and thus provides a robust marker for the elution position of that molecular form (14).

[2] = drug:protein 1:1, calcium present
[3] = drug:protein 10:1, calcium present
[4] = drug:protein 128:1, calcium present

serum amyloid P component (SAP), sequence (P02743 20-223): as above

IC50 ([1]; read-out: IC50, inhibition of SAP binding to amyloid fibrils in vitro): 500 to 1000 nM
Clearance of radiolabelled mouse SAP (radiolabelled mouse SAP; single intraperitoneal injection of 5 mg): no significant effect
Clearance of radiolabelled mouse SAP preincubated with drug in vitro (radiolabelled mouse SAP; tracer preincubated with drug before intravenous injection into normal mice): extremely rapidly cleared
Molecular assembly of isolated SAP by gel filtration (isolated pure human SAP; 128 fold or greater molar excess of drug): single pentameric form
Elution volume (isolated pure human SAP; [2]): 10.97 mL
Molecular assembly (isolated pure human SAP; [2]): Decamer
Elution volume (isolated pure human SAP; [3]): 10.97 mL
Molecular assembly (isolated pure human SAP; [3]): Decamer
Elution volume (isolated pure human SAP; [4]): 12.55 mL
Molecular assembly (isolated pure human SAP; [4]): Pentamer
Molecular assembly of isolated SAP by gel filtration (isolated pure human SAP; ratios between equimolar and 100 fold molar excess of drug to SAP protomers): all the SAP is decameric
SMILES: O=C(O)[C@H]1CCCN1C(=O)CCCCC(=O)N1CCC[C@@H]1C(=O)O [(R)-1-[6-(R)-2-Carboxy-pyrrolidin-1-yl]-6-oxo-hexanoyl]pyrrolidine-2-carboxylic acid]
Potency as inhibitor of SAP binding to amyloid fibrils relative to original lead compound ([1]; compared with 1-(3-Mercapto-2-methyl-1-oxopropyl)-D-proline): more potent inhibitors than the original lead compound
Routes that caused depletion of circulating SAP in normal wild type mice (circulating SAP): neither oral administration, nor intermittent injection or continuous infusion
